# Tests used:
# [1] = target: T1, human NPP3 (Homo sapiens, UniProt O14638); assay: Inhibition of NPP3 activity; type: biochemical; conditions: for inhibition at 100 µM: read-out: inhibition of NPP3 activity; for inhibition of pnp-TMP hydrolysis by NPP3: analogue and pnp-TMP 100 μM
# T1 construct: made in house; host or cells: COS-7 cells (transfected; protein extract / cell lysate)
# T1 sequence (O14638 1-875): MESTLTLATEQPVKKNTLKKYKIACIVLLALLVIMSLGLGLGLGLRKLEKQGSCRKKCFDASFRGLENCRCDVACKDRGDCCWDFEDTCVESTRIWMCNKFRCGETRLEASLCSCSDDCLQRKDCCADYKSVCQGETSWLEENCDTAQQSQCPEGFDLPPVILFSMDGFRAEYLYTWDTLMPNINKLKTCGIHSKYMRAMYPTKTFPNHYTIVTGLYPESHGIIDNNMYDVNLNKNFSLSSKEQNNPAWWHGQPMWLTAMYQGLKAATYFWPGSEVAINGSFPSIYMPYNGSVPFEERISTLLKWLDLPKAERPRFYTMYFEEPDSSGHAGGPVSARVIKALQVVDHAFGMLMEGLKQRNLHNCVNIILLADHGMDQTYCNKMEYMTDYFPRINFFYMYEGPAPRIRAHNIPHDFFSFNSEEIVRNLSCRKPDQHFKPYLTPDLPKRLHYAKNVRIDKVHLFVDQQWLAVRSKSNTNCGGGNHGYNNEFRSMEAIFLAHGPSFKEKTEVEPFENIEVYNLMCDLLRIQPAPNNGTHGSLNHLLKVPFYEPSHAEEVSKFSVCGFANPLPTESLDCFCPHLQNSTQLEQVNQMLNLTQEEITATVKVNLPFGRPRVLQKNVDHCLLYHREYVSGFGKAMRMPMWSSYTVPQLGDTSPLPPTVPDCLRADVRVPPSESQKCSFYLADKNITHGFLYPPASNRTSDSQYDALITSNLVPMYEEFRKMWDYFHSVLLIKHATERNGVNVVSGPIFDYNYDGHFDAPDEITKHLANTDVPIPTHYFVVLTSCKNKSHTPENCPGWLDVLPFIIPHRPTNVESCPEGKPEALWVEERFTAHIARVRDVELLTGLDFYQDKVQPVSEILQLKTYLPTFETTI
# Procedure: Pnp-TMP hydrolyses were carried out at 37° C. in 0.2 ml of the following incubation mixture: in mM, 1 CaCl2, 130 NaCl, 5 KCl and 50 Tris, pH 8.5, with or without the analogue tested and/or substrates. Substrates and analogues were all used at the final concentration of 100 μM. […] For pnp-TMP hydrolysis, the production of para-nitro-phenol was measured at […], 15 min after the initiation of the reaction.
# The samples were centrifuged for 5 min at 13,000×g. Supernatants were neutralized with 1 M KOH (Fisher Scientific, Ottawa, ON, Canada) at 4° C. and centrifuged for 5 min at 13,000×g.
# [2] = target: T2, TNAP (Homo sapiens, UniProt P05186); assay: Inhibition of TNAP; type: biochemical
# T2 sequence (P05186 18-501): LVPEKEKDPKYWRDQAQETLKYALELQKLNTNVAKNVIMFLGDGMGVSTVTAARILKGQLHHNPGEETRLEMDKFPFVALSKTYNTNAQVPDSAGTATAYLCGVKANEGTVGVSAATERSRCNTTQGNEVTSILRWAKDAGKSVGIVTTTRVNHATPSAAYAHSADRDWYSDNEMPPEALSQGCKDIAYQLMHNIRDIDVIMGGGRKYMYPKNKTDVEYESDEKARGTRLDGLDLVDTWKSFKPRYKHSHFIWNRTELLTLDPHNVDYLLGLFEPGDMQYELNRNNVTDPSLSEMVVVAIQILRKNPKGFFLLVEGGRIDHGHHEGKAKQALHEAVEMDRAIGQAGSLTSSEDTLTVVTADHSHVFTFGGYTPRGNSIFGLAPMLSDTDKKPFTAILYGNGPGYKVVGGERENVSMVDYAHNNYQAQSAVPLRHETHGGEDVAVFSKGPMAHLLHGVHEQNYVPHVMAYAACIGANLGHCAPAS
# [3] = target: T1, human NPP3; assay: Hydrolysis by human NPP3; type: in vitro ADME; conditions: 100 μM, 1 h, compared to ATP
# [4] = target: T3, human NPP1 (Homo sapiens, UniProt P22413); assay: Hydrolysis by human NPP1; type: in vitro ADME; conditions: for Hydrolysis by NPP1: 100 μM, 1 h, compared to ATP; for Relative hydrolysis by NPP1: over 2 h
# T3 construct: made in house; host or cells: COS-7 cells (transfected; protein extract / cell lysate)
# T3 sequence (P22413 1-925): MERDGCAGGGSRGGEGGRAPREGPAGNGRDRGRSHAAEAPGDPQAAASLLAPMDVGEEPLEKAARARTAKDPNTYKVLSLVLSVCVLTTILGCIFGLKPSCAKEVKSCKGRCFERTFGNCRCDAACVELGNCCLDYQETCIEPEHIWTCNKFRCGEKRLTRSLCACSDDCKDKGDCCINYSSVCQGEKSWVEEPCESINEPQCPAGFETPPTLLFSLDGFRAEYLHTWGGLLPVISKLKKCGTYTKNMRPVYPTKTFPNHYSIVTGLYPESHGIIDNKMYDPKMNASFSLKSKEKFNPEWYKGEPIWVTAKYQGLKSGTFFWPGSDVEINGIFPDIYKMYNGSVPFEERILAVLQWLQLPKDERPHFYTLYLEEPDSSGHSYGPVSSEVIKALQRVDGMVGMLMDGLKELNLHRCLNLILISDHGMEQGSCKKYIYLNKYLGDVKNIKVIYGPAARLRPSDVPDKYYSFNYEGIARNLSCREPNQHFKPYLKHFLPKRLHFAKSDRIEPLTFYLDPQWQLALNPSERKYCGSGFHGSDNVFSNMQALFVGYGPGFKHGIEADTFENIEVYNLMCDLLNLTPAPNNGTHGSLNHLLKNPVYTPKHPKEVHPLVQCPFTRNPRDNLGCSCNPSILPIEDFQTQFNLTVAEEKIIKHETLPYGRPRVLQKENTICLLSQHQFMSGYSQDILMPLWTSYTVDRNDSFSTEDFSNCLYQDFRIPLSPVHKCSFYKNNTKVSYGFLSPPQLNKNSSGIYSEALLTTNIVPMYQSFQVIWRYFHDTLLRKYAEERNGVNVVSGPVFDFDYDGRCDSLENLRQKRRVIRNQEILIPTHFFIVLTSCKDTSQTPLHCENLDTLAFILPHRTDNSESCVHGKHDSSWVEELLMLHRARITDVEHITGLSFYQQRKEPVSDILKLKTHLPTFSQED
compound,measurement,setting,value
"Nc1ncnc2c1ncn2[C@@H]1O[C@H](COP(O)(=S)OP(=O)(O)C(Cl)(Cl)P(=O)(O)O)[C@@H](O)[C@H]1O (single isomer, unassigned) [APPCCl2P-α-S, adenosine 5′-[Pα-thio]-β,γ-(dichloromethylene)triphosphate]",inhibition of the hydrolysis of ATP by NPP3,[1],33%
same,inhibition at 100 µM,[1],23 to 43%
"Nc1ncnc2c1ncn2[C@@H]1O[C@H](COP(O)(=S)OP(=O)(O)C(Cl)(Cl)P(=O)(O)O)[C@@H](O)[C@H]1O (single isomer, unassigned; isomer a) [APPCCl2P-α-S (isomer A), adenosine 5′-[Pα-thio]-β,γ-(dichloromethylene)triphosphate]",inhibition of TNAP,[2]; 100 μM,17%
"Nc1ncnc2c1ncn2[C@@H]1O[C@H](COP(O)(=S)OP(=O)(O)CP(=O)(O)O)[C@@H](O)[C@H]1O (single isomer, unassigned; isomer a) [APPCP-α-S (isomer A), adenosine 5′-[Pα-thio]-β,γ-methylenetriphosphate]",Hydrolysis by NPP3,[3],~1%
same,Hydrolysis by NPP1,[4],fully stable
"Nc1ncnc2c1ncn2[C@@H]1O[C@H](COP(O)(=S)OP(=O)(O)CP(=O)(O)O)[C@@H](O)[C@H]1O (single isomer, unassigned; isomer b) [APPCP-α-S (isomer B), adenosine 5′-[Pα-thio]-β,γ-methylenetriphosphate]",Hydrolysis by NPP3,[3],~4%
same,Hydrolysis by NPP1,[4],~4%
"Nc1ncnc2c1ncn2[C@@H]1O[C@H](COP(=O)(O)OP(O)(O)=S)[C@@H](O)[C@H]1O [ADP-β-S, adenosine 5′-[β-thio]diphosphate, reference compound]",inhibition of pnp-TMP hydrolysis by NPP3,[1],less than 50%
same,Relative hydrolysis by NPP1,[4],not metabolized at all
"Nc1ncnc2c1ncn2[C@@H]1O[C@H](COP(=O)(O)CP(=O)(O)OP(O)(O)=S)[C@@H](O)[C@H]1O [APCPP-γ-S, adenosine 5′-[Pγ-thio]-α,β-methylenetriphosphate]",inhibition at 100 µM,[2],8%
same,inhibition at 100 µM,[1],23 to 43%
adenosine-5′-tetrathiobisphosphonate,inhibition of pnp-TMP hydrolysis by NPP3,[1],7%
same,Relative hydrolysis by NPP1,[4],not metabolized at all
"di-adenosine-5′,5″-tetrathiobisphosphonate",inhibition of pnp-TMP hydrolysis by NPP3,[1],20%
same,Relative hydrolysis by NPP1,[4],not metabolized at all
